Key:
[1] = molecular target: Mitogen-activated protein kinase kinase kinase 10 (Homo sapiens, UniProt Q02779); experiment: Inhibition of Mixed lineage kinase 2(MLK2)
[2] = molecular target: Mitogen-activated protein kinase kinase kinase 11 (Homo sapiens, UniProt Q16584); experiment: Inhibition of Mixed lineage kinase 3 (MLK3)
[3] = molecular target: Protein kinase C (PKC); experiment: Inhibition of protein kinase C (PKC) from rat brain homogenate
[4] = molecular target: High affinity nerve growth factor receptor (Homo sapiens, UniProt P04629); experiment: Inhibition of NGF high affinity receptor tyrosine kinase TrkA
Chain of High affinity nerve growth factor receptor (P04629 whole entry): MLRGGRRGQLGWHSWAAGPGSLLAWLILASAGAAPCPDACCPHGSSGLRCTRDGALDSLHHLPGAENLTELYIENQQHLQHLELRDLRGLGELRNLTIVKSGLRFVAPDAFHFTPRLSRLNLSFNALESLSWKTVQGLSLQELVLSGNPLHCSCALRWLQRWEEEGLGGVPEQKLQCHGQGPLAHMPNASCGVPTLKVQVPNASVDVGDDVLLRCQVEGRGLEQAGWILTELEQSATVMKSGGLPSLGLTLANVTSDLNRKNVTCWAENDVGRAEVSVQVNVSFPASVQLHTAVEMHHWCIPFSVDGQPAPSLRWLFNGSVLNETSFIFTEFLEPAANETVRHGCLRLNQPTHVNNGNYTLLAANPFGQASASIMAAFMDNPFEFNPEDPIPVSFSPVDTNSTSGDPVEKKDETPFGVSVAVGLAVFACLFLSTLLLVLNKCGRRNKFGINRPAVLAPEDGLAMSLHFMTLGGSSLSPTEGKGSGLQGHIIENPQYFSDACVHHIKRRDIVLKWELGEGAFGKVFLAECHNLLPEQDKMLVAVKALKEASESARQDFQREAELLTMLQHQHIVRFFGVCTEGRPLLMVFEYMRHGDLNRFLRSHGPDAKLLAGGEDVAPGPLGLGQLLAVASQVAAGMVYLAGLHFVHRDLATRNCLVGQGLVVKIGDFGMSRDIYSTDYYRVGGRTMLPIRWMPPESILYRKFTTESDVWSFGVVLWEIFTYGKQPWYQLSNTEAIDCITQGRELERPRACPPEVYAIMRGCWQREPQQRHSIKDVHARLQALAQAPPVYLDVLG

[5] = molecular target: Mitogen-activated protein kinase kinase kinase 9 (Homo sapiens, UniProt P80192); experiment: Inhibition of Mixed lineage kinase 1 (MLK1)
Chain of Mitogen-activated protein kinase kinase kinase 9 (P80192 whole entry): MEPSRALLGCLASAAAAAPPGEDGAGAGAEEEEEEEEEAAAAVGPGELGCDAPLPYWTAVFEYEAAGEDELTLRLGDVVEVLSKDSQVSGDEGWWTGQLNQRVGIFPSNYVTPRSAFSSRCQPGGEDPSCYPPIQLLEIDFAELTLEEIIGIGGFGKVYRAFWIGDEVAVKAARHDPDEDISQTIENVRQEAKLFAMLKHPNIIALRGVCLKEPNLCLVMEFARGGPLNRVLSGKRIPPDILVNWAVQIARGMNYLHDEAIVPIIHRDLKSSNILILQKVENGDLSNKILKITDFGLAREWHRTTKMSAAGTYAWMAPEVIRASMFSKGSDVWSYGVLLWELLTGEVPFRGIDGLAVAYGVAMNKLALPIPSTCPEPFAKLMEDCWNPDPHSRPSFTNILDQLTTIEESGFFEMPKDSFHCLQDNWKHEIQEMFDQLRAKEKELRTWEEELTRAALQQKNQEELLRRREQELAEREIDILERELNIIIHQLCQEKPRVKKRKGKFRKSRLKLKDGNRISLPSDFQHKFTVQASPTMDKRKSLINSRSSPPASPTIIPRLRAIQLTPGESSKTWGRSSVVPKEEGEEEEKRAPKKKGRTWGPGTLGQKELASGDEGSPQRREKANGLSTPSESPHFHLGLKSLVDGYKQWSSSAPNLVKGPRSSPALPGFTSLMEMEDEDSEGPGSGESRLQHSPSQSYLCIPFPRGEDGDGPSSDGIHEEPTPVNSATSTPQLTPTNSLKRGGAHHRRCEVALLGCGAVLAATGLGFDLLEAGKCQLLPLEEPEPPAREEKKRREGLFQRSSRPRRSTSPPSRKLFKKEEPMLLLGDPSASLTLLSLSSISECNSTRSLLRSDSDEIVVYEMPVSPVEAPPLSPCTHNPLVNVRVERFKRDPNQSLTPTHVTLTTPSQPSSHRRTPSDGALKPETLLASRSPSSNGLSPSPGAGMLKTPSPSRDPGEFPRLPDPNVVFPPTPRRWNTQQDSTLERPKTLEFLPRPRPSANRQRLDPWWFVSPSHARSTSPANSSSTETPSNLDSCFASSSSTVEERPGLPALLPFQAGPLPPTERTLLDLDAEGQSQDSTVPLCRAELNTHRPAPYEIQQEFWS

Chain of Mitogen-activated protein kinase kinase kinase 10 (Q02779 whole entry): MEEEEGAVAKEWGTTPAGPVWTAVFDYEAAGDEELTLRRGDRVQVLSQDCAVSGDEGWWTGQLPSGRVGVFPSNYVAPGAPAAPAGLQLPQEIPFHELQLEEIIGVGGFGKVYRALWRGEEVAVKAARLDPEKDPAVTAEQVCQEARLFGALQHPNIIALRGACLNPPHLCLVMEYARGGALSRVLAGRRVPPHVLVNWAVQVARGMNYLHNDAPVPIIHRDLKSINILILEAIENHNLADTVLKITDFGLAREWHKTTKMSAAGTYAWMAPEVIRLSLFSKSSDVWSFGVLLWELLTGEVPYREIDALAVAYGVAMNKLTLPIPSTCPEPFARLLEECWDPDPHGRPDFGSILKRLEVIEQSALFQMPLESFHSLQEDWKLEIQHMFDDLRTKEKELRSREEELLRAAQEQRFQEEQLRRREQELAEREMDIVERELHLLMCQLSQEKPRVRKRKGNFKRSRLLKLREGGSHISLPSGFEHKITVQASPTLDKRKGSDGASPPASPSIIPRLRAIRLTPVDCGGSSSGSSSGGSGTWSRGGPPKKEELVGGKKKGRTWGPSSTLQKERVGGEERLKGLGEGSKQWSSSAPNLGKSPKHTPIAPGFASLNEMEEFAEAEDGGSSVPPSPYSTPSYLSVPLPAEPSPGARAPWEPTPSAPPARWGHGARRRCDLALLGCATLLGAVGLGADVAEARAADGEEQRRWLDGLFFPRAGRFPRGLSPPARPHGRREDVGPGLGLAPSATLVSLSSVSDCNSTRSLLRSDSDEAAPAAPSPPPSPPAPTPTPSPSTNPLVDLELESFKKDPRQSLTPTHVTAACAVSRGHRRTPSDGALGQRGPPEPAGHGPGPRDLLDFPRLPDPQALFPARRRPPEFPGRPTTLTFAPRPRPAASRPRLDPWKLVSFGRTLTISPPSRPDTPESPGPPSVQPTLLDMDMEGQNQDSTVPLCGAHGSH
Chain of Mitogen-activated protein kinase kinase kinase 11 (Q16584 whole entry): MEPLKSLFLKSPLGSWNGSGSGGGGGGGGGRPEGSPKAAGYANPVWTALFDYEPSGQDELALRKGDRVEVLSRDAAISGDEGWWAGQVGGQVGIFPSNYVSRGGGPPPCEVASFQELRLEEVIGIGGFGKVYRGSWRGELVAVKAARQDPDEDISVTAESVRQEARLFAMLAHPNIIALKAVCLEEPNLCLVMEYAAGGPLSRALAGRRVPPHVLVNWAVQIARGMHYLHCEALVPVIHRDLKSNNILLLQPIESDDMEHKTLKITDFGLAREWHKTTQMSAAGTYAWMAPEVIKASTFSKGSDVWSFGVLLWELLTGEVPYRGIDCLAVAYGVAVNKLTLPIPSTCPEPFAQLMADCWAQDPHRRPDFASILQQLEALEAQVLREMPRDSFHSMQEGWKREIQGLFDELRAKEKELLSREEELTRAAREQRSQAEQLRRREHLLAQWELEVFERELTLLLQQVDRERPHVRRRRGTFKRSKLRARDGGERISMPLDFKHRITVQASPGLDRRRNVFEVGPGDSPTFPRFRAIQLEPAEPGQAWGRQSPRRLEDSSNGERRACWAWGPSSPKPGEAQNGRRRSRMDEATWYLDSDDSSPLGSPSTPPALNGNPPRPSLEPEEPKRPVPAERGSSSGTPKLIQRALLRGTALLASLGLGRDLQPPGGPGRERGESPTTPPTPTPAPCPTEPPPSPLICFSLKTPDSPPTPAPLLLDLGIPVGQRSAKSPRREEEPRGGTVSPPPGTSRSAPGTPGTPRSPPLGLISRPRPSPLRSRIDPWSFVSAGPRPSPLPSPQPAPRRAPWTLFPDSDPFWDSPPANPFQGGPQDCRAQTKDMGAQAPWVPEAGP

Compound	IC50 [1] [nM]	IC50 [2] [nM]	IC50 [3] [nM]	IC50 [4] [nM]	IC50 [5] [nM]
CCOCc1ccc2c(c1)c1c3c(c4c5cc(COCC)ccc5n5c4c1n2[C@H]1C[C@](O)(C(=O)OC)[C@]5(C)O1)CNC3=O	20	11	2600	210	19
CCSCc1ccc2c(c1)c1c3c(c4c5ccccc5n5c4c1n2[C@@]1(C)O[C@@H]5C[C@]1(O)C(=O)OC)C(=O)NC3	28	21	400	61	28
COC(=O)[C@@]1(O)C[C@H]2O[C@]1(C)n1c3ccc(CSC(C)C)cc3c3c4c(c5c6cc(CSC(C)C)ccc6n2c5c31)C(=O)NC4	89	31	980	> 10000	45
COCc1ccc2c(c1)c1c3c(c4c5cc(COC)ccc5n5c4c1n2[C@H]1C[C@](O)(C(=O)OC)[C@]5(C)O1)CNC3=O	16	11	450	270	16
C=CCSCc1ccc2c(c1)c1c3c(c4c5cc(CSCC=C)ccc5n5c4c1n2[C@H]1C[C@](O)(C(=O)OC)[C@]5(C)O1)CNC3=O		94	> 10000	> 1000	162
COC(=O)[C@@]1(O)C[C@H]2O[C@]1(C)n1c3ccc(CO)cc3c3c4c(c5c6cc(CO)ccc6n2c5c31)C(=O)NC4		11	3		15
CCCCSCc1ccc2c(c1)c1c3c(c4c5cc(CSCCCC)ccc5n5c4c1n2[C@H]1C[C@](O)(C(=O)OC)[C@]5(C)O1)CNC3=O	627	143	> 7600	> 1000	303
CCSCc1ccc2c(c1)c1c3c(c4c5ccccc5n5c4c1n2[C@H]1C[C@](O)(C(=O)OC)[C@]5(C)O1)CNC3=O	140	44	222	> 1000	43
CCCSCc1ccc2c(c1)c1c3c(c4c5cc(CSCCC)ccc5n5c4c1n2[C@H]1C[C@](O)(C(=O)OC)[C@]5(C)O1)CNC3=O		56	> 10000	> 10000	90
COC(=O)[C@@]1(O)C[C@H]2O[C@]1(C)n1c3ccc(CSCCN(C)C)cc3c3c4c(c5c6cc(CSCCN(C)C)ccc6n2c5c31)C(=O)NC4		123	1600	> 1000	360
CCSCc1ccc2c(c1)c1c3c(c4c5cc(CSCC)ccc5n5c4c1n2[C@H]1C[C@](O)(C(=O)OC)[C@]5(C)O1)CNC3=O [CEP-1347]	51	23.1	> 10000	> 10000	38

— ChEMBL document CHEMBL1135365, “Mixed lineage kinase activity of indolocarbazole analogues” (Bioorg Med Chem Lett, 2002)
